Laboratory results taken from article PMC11199504, “New hemisynthetic derivatives of sphaeropsidin phytotoxins triggering severe endoplasmic reticulum swelling in cancer cells” (Scientific Reports, 2024).
Where two headings read alike, the source gives them in different places.

What was measured:
A549 [1] = assay: MTT colorimetric assay, A549; type: cell-based; conditions: Homo sapiens, 72 h treatment, mean ± SEM of six replicates of one experiment (1: 7, 13: 6 independent experiments), resistant to apoptosis, read-out: IC50 determined by MTT assays, A549
Text: (§1) Cancer cell lines were obtained from either the European Collection of Cell Cultures (ECACC; Salisbury, UK) or the American Type Culture Collection (ATCC; Manassas, VA). The two glioma cell lines were the U373 (ECACC code 08061901) and Hs683 (ATCC HTB-138) cell lines. The carcinoma cell lines were the A549 non-small cell carcinoma cell line (ATCC code CCL 185) and the MCF-7 mammary breast carcinoma cell line (ATCC code HTB-22). The melanoma cell lines were the mouse B16F10 cells (ATCC code CRL-6475) and the human SKMEL-28 cells (ATCC code HTB-72). The ovarian cancer cell line A2780 and its cisplatin-resistant subline A2780cis were obtained from Sigma-Aldrich (St. Louis, MO, USA). Colon cancer HCT116 cells were obtained from ATCC (CCL-247) and the oxaliplatin-resistant subline HCT116/OxR established in the W. Berger lab[59]. The HeLa cell derivative KB-3-1 and the colchicine-selected, highly ABCB1-overexpressing subline KB-C-1 were generously donated by Dr. D. W. Shen, Bethesda, MD. RKOp53wt colon cancer cells together with the RKOp53KO (homozygous knock-out) subline[60] were generously provided by Dr. Vogelstein from John Hopkins University, Baltimore. The correct origin of all cell models was confirmed by STR during performance of the experiments. All cell lines were cultured in RPMI1640 culture medium supplemented with 10% heat-inactivated fetal bovine serum, 2% L-glutamine (0.6 mg/mL), 2% penicillin/streptomycin (200 IU/mL and 200 μg/mL) and 0.1 mg/mL gentamicin.
(§2) The MTT (3-(4,5-dimethylthiazol-2-yl)-2,5-diphenyl tetrazolium bromide) colorimetric assay has been conducted as described previously. Briefly, cells were seeded 24 h before their treatment with each compound for a period of 72 h. The concentrations tested ranged from 10 nM to 100 µM. Each assay was conducted in sextuplicates. The number of independent experiments is mentioned in the legend of the tables.

SKMEL-28 [2] = assay: MTT colorimetric assay, SKMEL-28; type: cell-based; conditions: Homo sapiens, SK-MEL-28; 72 h treatment; mean ± SEM; resistant to apoptosis; read-out: IC50 determined by MTT assays, SKMEL-28
Text: as §1, §2

U373 [3] = assay: MTT colorimetric assay, U373; type: cell-based; conditions: Homo sapiens, U373 MG; 72 h treatment; mean ± SEM; resistant to apoptosis; read-out: IC50 determined by MTT assays, U373
Text: as §1, §2

MCF7 = assay: MTT colorimetric assay, MCF7; type: cell-based; conditions: Homo sapiens, 72 h treatment, mean ± SEM, sensitive to apoptosis, read-out: IC50 determined by MTT assays, MCF7
Text: as §1, §2

Hs683 [4] = assay: MTT colorimetric assay, Hs683; type: cell-based; conditions: Homo sapiens, Hs 683; 72 h treatment; mean ± SEM; sensitive to apoptosis; read-out: IC50 determined by MTT assays, Hs683
Text: as §1, §2

B16F10 [5] = assay: MTT colorimetric assay, B16F10; type: cell-based; conditions: Mus musculus, B16-F10; 72 h treatment; mean ± SEM; sensitive to apoptosis; read-out: IC50 determined by MTT assays, B16F10
Text: as §1, §2

[6] = system: A549, SKMEL-28, U373, MCF7, Hs683, B16F10; assay: MTT colorimetric assay, mean of the six cell lines; type: cell-based; conditions: 72 h, mean over the six cell lines; 72 h treatment; read-out: IC50 determined by MTT assays, Mean
Text: as §1, §2

[7] = system: SK-MEL-28 human melanoma and U373 glioblastoma cells; assay: ER swelling / vacuole origin (CellLight ER-GFP, brightfield, TEM); type: cell-based; conditions: SK-MEL-28 and U373 cells
Text: To decipher the origin of vacuoles, fluorescent probes staining different cellular compartments were used: the lysosomal Red DND-99 LysoTracker®, the glibenclamide Red ER tracker®, the green FM MitoTracker® that were all purchased from Lifes Technologies (Invitrogen, Belgium) and used according to manufacturer’s instructions. The CellLight ER-GFP (Thermofisher, Belgium) staining of the ER is based on the transfection of a plasmid coding for a fusion protein made of GFP fused to the ER signal sequence of calreticulin and the KDEL ER retention signal. Briefly, 6 × 10^4 cells were seeded on glass coverslips in 6 well plates. After a minimum of 24 h, cells were treated or not with the compounds of interest. Note that concentration and duration of the treatment were determined separately for each compound prior to the experiment on the basis of the apparition of marked morphological changes in phase contrast microscopy. Sixteen hours before the end of the experiment, 4 µL/well of the reagent were added to allow transfection and expression of the GFP-fused protein by the cells. Coverslips were then washed twice in PBS and mounted on slides without fixation step to take captions with the Axio.Imager.M2 microscope (Carl Zeiss, Belgium). To evaluate the cellular distribution of 13, the Axio.Imager.M2 was specifically equipped with an M340L4 excitation source (Thorlabs) and the pseudoconfocal Zeiss ZEN deconvolution system kindly provided for demo by Carl Zeiss (Belgium) to allow direct visualization of the compound 13 itself thanks to its intrinsic fluorescent properties.
For TEM, cells were fixed with glutaraldehyde 2.5% (EM grade, Electron Microscopy Sciences, EMS) at 4 °C overnight, washed tree times in cacodylate buffer (pH 7.4) and postfixed 1 h at room temperature in 1% OsO4, (EMS), 1.5% potassium ferrocyanide (Sigma-Aldrich) in 0.15 M cacodylate buffer. This was immediately followed by a second incubation in 1% OsO4 for 1 h at room temperature. After washing in distilled water, samples were stained with 1% uranyl acetate (EMS) and serially dehydrated in increasing ethanol concentrations. Samples were then embedded in epoxy resin (Agar 100 resin, Agar Scientific Ltd) and left to polymerize for 2 days at 60 °C. Ultrathin sections (50–70 nm thick) were collected with a Leica UC6 ultra-microtome on formvar-carbon-coated copper grids and further stained with uranyl acetate and lead citrate by standard procedures. Observations were made on a Tecnai 10 transmission electron microscope (FEI) and images were captured with a Veleta camera and processed with SIS iTEM software (Olympus).

A549 [8] = system: A549; design: method as in doi:10.1016/j.phytol.2012.08.011; conditions: 72 h treatment; read-out: IC50 determined by MTT assays, A549; cited from earlier work
SKMEL-28 [9] = system: SKMEL-28; design: method as in doi:10.1016/j.phytol.2012.08.011; conditions: 72 h treatment; read-out: IC50 determined by MTT assays, SKMEL-28; cited from earlier work
U373 [10] = system: U373; design: method as in doi:10.1016/j.phytol.2012.08.011; conditions: 72 h treatment; read-out: IC50 determined by MTT assays, U373; cited from earlier work
Hs683 [11] = system: Hs683; design: method as in doi:10.1016/j.phytol.2012.08.011; conditions: 72 h treatment; read-out: IC50 determined by MTT assays, Hs683; cited from earlier work
B16F10 [12] = system: B16F10; design: method as in doi:10.1016/j.phytol.2012.08.011; conditions: 72 h treatment; read-out: IC50 determined by MTT assays, B16F10; cited from earlier work
[13] = system: A549, SKMEL-28, U373, MCF7, Hs683, B16F10; design: method as in doi:10.1016/j.phytol.2012.08.011; conditions: mean over cell lines (MCF7 not available); read-out: IC50 determined by MTT assays, Mean; cited from earlier work
A2780 = assay: MTT assay, A2780 (parental sensitive); type: cell-based; conditions: Homo sapiens, A2780; 72 h treatment; ± standard deviation; parental sensitive model; read-out: IC50 determined by MTT assays, A2780
Text: as §1, §2
(§3) SI Table 1: IC50 determined by MTT assays. Mean concentration (± standard deviation) in µM required to
(§4) reduce the viability of cells by 50% after a 72 h treatment relative to the control.
(§5) Parental sensitive models Drug-resistant models

Hct116 = assay: MTT assay, Hct116 (parental sensitive); type: cell-based; conditions: Homo sapiens, HCT-116; 72 h treatment; ± standard deviation; parental sensitive model; read-out: IC50 determined by MTT assays, Hct116
Text: as §1, §2, §3, §4, §5

RKO/P53wt = assay: MTT assay, RKO/P53wt (parental sensitive); type: cell-based; conditions: 72 h treatment; ± standard deviation; parental sensitive model; read-out: IC50 determined by MTT assays, RKO/P53wt
Text: as §1, §2, §3, §4, §5

KB-3-1 = assay: MTT assay, KB-3-1 (parental sensitive); type: cell-based; conditions: Homo sapiens, KB 3-1; 72 h treatment; ± standard deviation; parental sensitive model; read-out: IC50 determined by MTT assays, KB-3-1
Text: as §1, §2, §3, §4, §5

[14] = system: Parental sensitive models; assay: MTT assay, mean of parental sensitive models; type: cell-based; conditions: 72 h treatment; read-out: IC50 determined by MTT assays, mean of parental sensitive models
Text: as §1, §2, §3, §4, §5

A2780R = assay: MTT assay, A2780R (cisplatin-resistant); type: cell-based; conditions: 72 h treatment; ± standard deviation; drug-resistant model; read-out: IC50 determined by MTT assays, A2780R
Text: as §1, §2, §3, §4, §5

Hct116/OxR = assay: MTT assay, Hct116/OxR (oxaliplatin-resistant); type: cell-based; conditions: Homo sapiens, HCT-116; 72 h treatment; ± standard deviation; drug-resistant model; read-out: IC50 determined by MTT assays, Hct116/OxR
Text: as §1, §2, §3, §4, §5

RKO/p53ko = assay: MTT assay, RKO/p53ko; type: cell-based; conditions: 72 h treatment; ± standard deviation; drug-resistant model; read-out: IC50 determined by MTT assays, RKO/p53ko
Text: as §1, §2, §3, §4, §5

KB-C-1 = assay: MTT assay, KB-C-1 (ABCB1-overexpressing); type: cell-based; conditions: KBC-1; 72 h treatment; ± standard deviation; drug-resistant model; read-out: IC50 determined by MTT assays, KB-C-1
Text: as §1, §2, §3, §4, §5

Drug-resistant models = assay: MTT assay, mean of drug-resistant models; type: cell-based; conditions: 72 h treatment; read-out: IC50 determined by MTT assays, mean of drug-resistant models
Text: as §1, §2, §3, §4, §5

human TopIIa = target: T1, human TopIIa (Homo sapiens, UniProt P11388); assay: Cell-free decatenation assay; type: biochemical; conditions: at 500 µM, read-out: TopoIIa inhibition
T1 construct: purchased TopoGen (Port Orange, FL, USA)
Experimental: The topoisomerase (Top) activity assay kit, including kinetoplast DNA (kDNA and recombinant human TopIIa enzyme, was obtained from TopoGen (Port Orange, FL, USA), agarose from PeqLab (Erlangen, Germany), 50 × TAE buffer from Roth (Karlsruhe, Germany) and ethidium bromide solution (10 mg/mL) from Sigma-Aldrich (Taufkirchen, Germany). Decatenation assays were performed as described previously[62] with slight modifications according to the manufacturer’s protocol. 100 µM of the recently described dual topoisomerase poison P8-D6 served as a positive control, and 5% DMSO as a solvent control. Briefly, the compounds were dissolved in DMSO and diluted to 20× the concentration to be tested. 1 µL of the resulting stock solutions were mixed with 18 µL of a buffer containing 200 ng kDNA and 1 mM ATP. Subsequently, 1 µL of a 1u/µL dilution of TopIIa enzyme was added and incubated at 37 °C for 30 min. Afterwards, the reaction was stopped by addition of Stop buffer, and electrophoresis was carried out on a 1% agarose gel in TAE buffer. The gel was stained with 0.5 µg/mL ethidium bromide, washed with water, and fluorescence images were captured with the LAS4000 system (Fujifilm, Duesseldorf, Germany). All steps were carried out on ice.

T1 sequence (P11388 whole entry): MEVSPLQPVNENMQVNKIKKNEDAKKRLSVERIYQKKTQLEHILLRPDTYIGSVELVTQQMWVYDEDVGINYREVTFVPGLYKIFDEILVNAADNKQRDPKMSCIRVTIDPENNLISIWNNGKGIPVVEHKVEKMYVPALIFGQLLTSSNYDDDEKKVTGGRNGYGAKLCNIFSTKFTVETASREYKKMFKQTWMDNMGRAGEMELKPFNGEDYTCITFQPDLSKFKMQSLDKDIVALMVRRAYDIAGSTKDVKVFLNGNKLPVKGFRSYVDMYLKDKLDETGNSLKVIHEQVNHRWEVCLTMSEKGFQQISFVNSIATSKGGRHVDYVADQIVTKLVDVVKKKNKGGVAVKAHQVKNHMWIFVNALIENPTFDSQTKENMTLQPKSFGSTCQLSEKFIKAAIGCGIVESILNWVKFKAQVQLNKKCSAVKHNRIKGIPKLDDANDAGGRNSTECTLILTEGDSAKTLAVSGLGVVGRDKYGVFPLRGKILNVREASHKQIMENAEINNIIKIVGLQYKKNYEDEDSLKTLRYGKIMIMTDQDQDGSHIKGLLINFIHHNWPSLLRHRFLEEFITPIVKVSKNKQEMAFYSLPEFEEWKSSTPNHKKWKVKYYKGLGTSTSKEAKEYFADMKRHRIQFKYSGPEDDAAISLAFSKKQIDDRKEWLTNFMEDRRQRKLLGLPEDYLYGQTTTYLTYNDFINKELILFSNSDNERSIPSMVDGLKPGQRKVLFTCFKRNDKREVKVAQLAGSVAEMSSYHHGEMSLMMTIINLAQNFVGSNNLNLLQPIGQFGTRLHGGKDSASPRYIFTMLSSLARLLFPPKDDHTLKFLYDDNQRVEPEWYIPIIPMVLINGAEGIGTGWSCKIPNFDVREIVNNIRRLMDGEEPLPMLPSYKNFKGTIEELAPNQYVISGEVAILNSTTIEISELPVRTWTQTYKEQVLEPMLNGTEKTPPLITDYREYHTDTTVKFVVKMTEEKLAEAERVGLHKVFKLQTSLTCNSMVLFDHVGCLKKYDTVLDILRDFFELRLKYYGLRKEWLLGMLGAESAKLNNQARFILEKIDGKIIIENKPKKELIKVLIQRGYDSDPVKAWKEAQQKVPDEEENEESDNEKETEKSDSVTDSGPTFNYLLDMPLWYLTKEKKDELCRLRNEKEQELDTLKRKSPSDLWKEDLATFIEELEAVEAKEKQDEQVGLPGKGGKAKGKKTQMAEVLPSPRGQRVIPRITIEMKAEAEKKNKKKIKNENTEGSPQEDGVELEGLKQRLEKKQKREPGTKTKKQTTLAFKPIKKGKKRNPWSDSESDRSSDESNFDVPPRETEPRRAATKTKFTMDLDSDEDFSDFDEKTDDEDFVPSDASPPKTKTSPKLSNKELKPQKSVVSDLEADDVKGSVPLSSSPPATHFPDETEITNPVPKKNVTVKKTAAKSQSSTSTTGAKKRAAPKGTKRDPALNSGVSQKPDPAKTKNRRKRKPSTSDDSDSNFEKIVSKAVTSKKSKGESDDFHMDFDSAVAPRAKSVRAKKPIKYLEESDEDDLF

IC50 (A549 [1]) [µM]	IC50 (SKMEL-28 [2]) [µM]	IC50 (MCF7) [µM]	IC50 (B16F10 [5]) [µM]	IC50 [6] [µM]	Structure (SMILES)	IC50 (U373 [3]) [µM]	IC50 (Hs683 [4]) [µM]	ER swelling / ER-derived vacuolization [7]	further results
2.05 ± 0.2	2.46 ± 0.08	1.3 ± 0.11	1.08 ± 0.14	2.14 ± 0.33	CC1(C=CCCOc2cccc3ccccc23)C=C2C(=O)C3(O)OC(=O)C4(CCCC(C)(C)C34)C2(O)CC1 (stereo not shown) [Compound 26]	2.84 ± 0.12	3.1 ± 0.23	induction of ER-derived vacuolization	
					C=CC1(C)C=C2C(=O)C3(OC(C)=O)OC(=O)C4(CCCC(C)(C)C34)C2(O)CC1 (stereo not shown) [Compound 2]				IC50 (A549 [8]): 2.29 ± 0.13 µM; IC50 (SKMEL-28 [9]): 2.68 ± 0.04 µM; IC50 (U373 [10]): 0.95 ± 0.02 µM; IC50 (Hs683 [11]): 3.76 ± 0.04 µM; IC50 (B16F10 [12]): 1.56 ± 0.16 µM; IC50 [13]: 2.25 ± 0.48 µM
44.8 ± 0.54	59.3 ± 4.51	84.5 ± 8.29	41.7 ± 1.49	51.9 ± 7.19	C=C[C@]1(C)C=C2[C@@H](O)[C@@]3(O)OC(=O)[C@@]4(CCCC(C)(C)[C@H]34)[C@@]2(O)CC1 [Compound 15, sphaeropsidin B, reference compound]	37.8 ± 1.5	43.1 ± 1.07		IC50 (A2780): > 100 µM; IC50 (Hct116): > 100 µM; IC50 (RKO/P53wt): > 100 µM; IC50 (KB-3-1): > 100 µM; IC50 [14]: > 100 µM; IC50 (A2780R): > 100 µM; IC50 (Hct116/OxR): > 100 µM; IC50 (RKO/p53ko): > 100 µM; IC50 (KB-C-1): > 100 µM; IC50 (Drug-resistant models): > 100 µM; inhibition at 500 µM (human TopIIa): ~50%

Structure (SMILES)	IC50 (A549 [1]) [µM]	IC50 (SKMEL-28 [2]) [µM]	IC50 (MCF7) [µM]	IC50 (B16F10 [5]) [µM]	IC50 [6] [µM]	IC50 (U373 [3]) [µM]	IC50 (Hs683 [4]) [µM]	ER swelling / ER-derived vacuolization [7]	further results
CC1(C=CCOCc2ccc3ccc4cccc5ccc2c3c45)C=C2C(=O)C3(O)OC(=O)C4(CCCC(C)(C)C34)C2(O)CC1 (stereo not shown) [Compound 25]	3.47 ± 3.28	3.32 ± 0.3	2.71 ± 0.14	3.28 ± 0.3	3.34 ± 0.16	3.93 ± 0.1	3.32 ± 0.23	induction of ER-derived vacuolization	
